# Experimental data taken from paper PMC11581978, “Paenilamicins are context-specific translocation inhibitors of protein synthesis” (Nature Chemical Biology, 2024).
# “Also recorded” adds a separate entry of the source.
# How the values were obtained:
# [1] = tested on: E. coli ribosomes translating MLIFstop-mRNA; assay: Toeprinting assay on MLIFstop-mRNA; assay type: biochemical; settings: 0.5-100 µM, toeprinting in duplicate, 30 min at 37 °C
# Source text: To investigate how paenilamicins inhibit translation, we generated PamB2-stalled ribosome complexes (PamB2-SRC) for single-particle cryo-EM analysis. Rather than forming complexes on vacant ribosomes, or with predefined functional states, we instead aimed to use more physiological complexes where translating ribosomes become stalled by PamB2. To achieve this, we performed in vitro translation reactions with E. coli ribosomes using the Met-Leu-Ile-Phe-stop-mRNA (MLIFstop-mRNA), a model template that we had previously used to successfully determine structures of drosocin-stalled ribosomal complexes. Toeprinting was used to monitor the position of ribosomes on the MLIFstop-mRNA in the presence of increasing concentrations of synthetic PamB2 (Extended Data Fig. 2). […] (Extended Data Fig. 2). […] (Extended Data Fig. 2).
# Toeprinting reactions for Fig. 4b and Extended Data Fig. 2 were performed as described previously. Briefly, reactions were performed with 6 μl of PURExpress in vitro protein synthesis system (New England Biolabs). The reactions were carried out with different primers and templates (Supplementary Tables 2 and 3). The reactions contained 340 ng of the respective mRNA template and were supplemented with the different compounds as specified. The translation reactions were incubated for 30 min at 37 °C. […]
# [2] = tested on: ribosomes translating ErmBL mRNA; assay: Toeprinting on ErmBL mRNA templates (Figs. 4a and 5c); assay type: biochemical, E. coli; settings: 100 µM
# Procedure: Toeprinting reactions for Figs. 4a and 5c were performed as described previously. Briefly, reactions were performed with 5 μl of PURExpress in vitro protein synthesis system. The reactions contained 0.1 pmol of the respective DNA template (Supplementary Table 2) and were supplemented with retapamulin, erythromycin, mupirocin or PamB2 as specified. The transcription–translation reactions were incubated 20 min at 37 °C. Subsequently, reverse transcription was performed for 10 min at 37 °C using AMV RT and the radiolabeled NV*1-primer. Reactions were stopped by the addition of 1 µl of 10 M NaOH and then neutralized with 0.8 µl of concentrated HCl. Subsequently, 200 µl of the stop buffer (0.3 M sodium acetate (pH 5.5), 5 mM EDTA and 0.5% SDS) was added and phenol extraction was performed. The obtained complementary DNA was precipitated in ethanol for subsequent gel electrophoresis.
# [3] = tested on: E. coli 70S ribosome; assay: Cryo-EM of PamB2-stalled ribosome complexes; assay type: binding; settings: 50 µM
# Procedure: PamB2-ribosome complexes were generated by in vitro transcription–translation reactions in PURExpress in vitro protein synthesis system (New England Biolabs) with the same reaction mix as described earlier in the toeprinting assays. Complex formation reactions were carried out on MLIFstop toeprint DNA template in a 48 µl of reaction in presence of 50 µM PamB2. The reaction was incubated for 15 min at 37 °C. The reaction volume was then split: 42 µl were used for complex generation and 6 µl were used for toeprinting analysis. Ribosome complexes were isolated by centrifugation in 900 µl of sucrose gradient buffer (containing 40% sucrose, 50 mM HEPES-KOH, pH 7.4, 100 mM KOAc, 25 mM Mg(OAc)2 and 6 mM 2-mercaptoethanol) for 3 h at 4 °C with 80,000g in a Optima Max-XP Tabletop Ultracentrifuge with a TLA 120.2 rotor. The pelleted complex was resuspended in Hico buffer (50 mM HEPES-KOH, pH 7.4, 100 mM KOAc, 25 mM Mg(OAc)2) supplemented with 50 µM PamB2, then incubated for 15 min at 37 °C.
# Sample volumes of 3.5 μl (eight at an optical density of 260 nm per milliliter) were applied to grids (Quantifoil, Cu, 300 mesh, R3/3 with 3-nm carbon) that had been freshly glow-discharged using a GloQube (Quorum Technologies) in negative charge mode at 25 mA for 90 s. Sample vitrification was performed using an ethane-propane mixture (37:63) in a Vitrobot Mark IV (Thermo Fisher Scientific), the chamber was set to 4 °C and 100% relative humidity and blotting was done for 3 s with no drain or wait time. Frozen cryo-EM grids were imaged on a TFS 300 kV Titan Krios at the Dubochet Center for Imaging EPFL (Lausanne, Switzerland). Images were collected on Falcon IV direct detection camera in counting mode using the EPU and AFIS data collection scheme with a magnification of ×96,000 and a total dose of 60 electrons per square angstrom (e^−/Å^2) for each exposure, and defocus ranging from −0.4 to −0.9 μm. In total, 7,638 videos were produced in EER format at a pixel size of 0.8 Å per pixel.
# RELION v.4.0.1 (ref. [46]) was used for processing, unless otherwise specified. For motion correction, RELION’s implementation of MotionCor2 with 4×4 patches and for initial contrast transfer function (CTF) estimation CTFFIND v.4.1.14 (ref. [47]) was used. From 7,638 micrographs, 611,189 particles were picked using crYOLO v.1.8.04b47 with a general model. Then 562,816 ribosome-like particles were selected after two-dimensional classification and extracted at three times decimated pixel size (2.4 Å per pixel) (Supplementary Fig. 1b,c). An initial three-dimensional (3D) refinement was done using a E. coli 70S reference map (EMD-12573)[30]. […]
substance,measurement,setting,value
paenilamicin B2 [PamB2],ribosome stalling on MLIFstop-mRNA,[1],gradual loss of ribosomes at the AUG codon and an increase in ribosomes stalled one codon further with the UUG (Leu) codon in the P-site
same,inhibition when Phe-tRNA (ms2i6A37) decodes UUC in the A-site,[2]; ErmBL mRNA,no inhibition
same,inhibition when tRNALeu (ms2i6A37) decodes UUG in the A-site,[2]; ErmBL mRNA,not inhibited
same,translation through stretches of UUG codons,[2]; ErmBL mRNA with 1–5 UUG repeats,ribosomes can translate through stretches of up to five UUG codons unhindered
same,ribosome stalling at serine codon UCA,"[2]; ErmBL-(UUG)4 mRNA, seventh codon UCA, tRNASer with ms2i6A37",only weak stalling
same,ribosome stalling at serine codon UCC,"[2]; ErmBL-(UUG)4 mRNA, seventh codon UCC, tRNASer lacking A37 modification",strong stalling
same,ribosome stalling at serine codon UCG,"[2]; ErmBL-(UUG)4 mRNA, seventh codon UCG, tRNASer with ms2i6A37",only weak stalling
same,ribosome stalling at serine codon UCU,"[2]; ErmBL-(UUG)4 mRNA, seventh codon UCU, tRNASer lacking A37 modification",strong stalling
same,"ribosome stalling at subsequent sites, ErmBL mRNA",[2]; fourth UUC (Phe) in the P-site,a subset of ribosomes also become stalled
same,"accumulation of ribosomes on AUG start codon, wildtype (1×UUG) ErmBL mRNA","[2]; mupirocin present, in duplicate",did not lead to a strong accumulation of ribosomes on the AUG start codon
same,"ribosome stalling, wildtype (1×UUG) ErmBL mRNA","[2]; mupirocin present, second codon UUG in the P-site",ribosomes became stalled only once the second ermBL codon (UUG) moved into the P-site
same,"ribosome stalling at subsequent sites, ErmBL mRNA",[2]; third GUA codon in the P-site,not the third GUA codon in the P-site
same,binding to elongating ribosomes (density),"[3]; A- and P-site tRNAs (nonrotated) or A/P- and P/E-hybrid tRNAs (rotated), 2.2-2.3 Å",additional density located between the A- and P-site tRNAs that could be unambiguously assigned to PamB2; also recorded: binds stably to the small subunit of elongating ribosomes containing A- and P-site transfer RNAs (tRNAs)
same,binding to initiating ribosomes (density),"[3]; P-site tRNA only, 2.4 Å",No density for PamB2 was evident; also recorded: not to initiating ribosomes bearing only a P-site tRNA
same,peptide bond formation in PamB2-bound elongation complexes,[3]; additional density on CCA-end of A-site and A/P-tRNA,peptide bond formation has already occurred
same,binding site on the ribosome,[3]; cryo-EM,"located predominantly on the 30S subunit of the 70S ribosome, where it inserts into the cleft between the A- and P-site tRNAs"
